In the experiment the target is T1, SGKL (SGK3) (Homo sapiens, UniProt Q96BR1).
T1 construct: purchased Thermo Fisher Scientific (Life Technologies) SelectScreen
Description: SelectScreen Z'LYTE. In kind it is biochemical. Put shortly: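 Percent values come from Thermo SelectScreen profiling of NU5455, combining activity and binding assays. CSF1R was run in Z'LYTE format at Km app ATP, and CAMK1 in Adapta format with ATP listed at 10.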

T1 sequence (Q96BR1 whole entry): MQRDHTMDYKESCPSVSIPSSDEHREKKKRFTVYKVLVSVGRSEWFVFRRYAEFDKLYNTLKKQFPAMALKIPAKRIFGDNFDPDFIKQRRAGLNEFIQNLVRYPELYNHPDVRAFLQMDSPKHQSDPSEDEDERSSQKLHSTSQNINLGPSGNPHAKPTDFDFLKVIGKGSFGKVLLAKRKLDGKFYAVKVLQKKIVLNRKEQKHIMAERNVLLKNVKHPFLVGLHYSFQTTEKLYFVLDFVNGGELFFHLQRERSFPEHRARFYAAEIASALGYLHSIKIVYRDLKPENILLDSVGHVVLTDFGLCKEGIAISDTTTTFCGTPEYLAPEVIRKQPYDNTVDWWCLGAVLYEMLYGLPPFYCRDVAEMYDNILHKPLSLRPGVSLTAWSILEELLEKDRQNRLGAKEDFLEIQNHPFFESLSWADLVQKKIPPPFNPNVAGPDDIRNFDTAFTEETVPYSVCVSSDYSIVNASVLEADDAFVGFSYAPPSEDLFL

Consider `CN(C(=O)CN1CCOCC1)c1ccc2sc3c(-c4cccc5c(=O)cc(N6CC7CCC(C6)O7)oc45)cccc3c2c1` [NU5455], for which the inhibition at 1 µM is -4.6%.

The values are drawn from PMC6934184, “Selective DNA-PKcs inhibition extends the therapeutic index of localized radiotherapy and chemotherapy” (The Journal of Clinical Investigation, 2019).
